Article PMC5182053 (Science Advances, 2016)

Target: α-enolase (Homo sapiens, UniProt P06733)
Assay: microscale thermophoresis with labeled recombinant protein
Type: binding

α-enolase, sequence (P06733 2-434): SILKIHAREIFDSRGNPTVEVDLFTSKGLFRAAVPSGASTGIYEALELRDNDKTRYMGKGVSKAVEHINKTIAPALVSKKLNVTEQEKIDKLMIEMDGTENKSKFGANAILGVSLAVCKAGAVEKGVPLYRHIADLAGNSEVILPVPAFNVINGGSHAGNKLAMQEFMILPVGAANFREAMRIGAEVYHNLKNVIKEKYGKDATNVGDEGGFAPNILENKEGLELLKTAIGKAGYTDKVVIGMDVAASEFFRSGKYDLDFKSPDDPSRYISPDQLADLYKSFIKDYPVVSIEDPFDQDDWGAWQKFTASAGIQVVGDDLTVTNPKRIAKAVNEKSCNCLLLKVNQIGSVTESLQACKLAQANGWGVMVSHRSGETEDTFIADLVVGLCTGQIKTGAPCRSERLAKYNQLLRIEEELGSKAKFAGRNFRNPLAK

Kd: 1250 nM
Compound: CCOC(=O)Oc1c(OC)cc(C(=O)O[C@@H]2C[C@@H]3CN4CCc5c([nH]c6cc(OC)ccc56)[C@H]4C[C@@H]3[C@H](C(=O)OC)[C@H]2OC)cc1OC [syrosingopine]
